Laboratory results: the supplement of paper PMC13380429

What was measured:
Settings in all cases: 72 h
Calu-3 [1] = assay: drug sensitivity score (DSS) for viability; higher = more toxic; extreme values may be limits of the assay
Vero E6 [2] = assay: as above
HepG2 [3] = assay: as above
U2OS [4] = assay: as above
Caco-2 [5] = assay: as above
Calu-3 [6] = assay: relative viability EC50 (midpoint between 100% and the lowest measured viability); higher = less toxic
Vero E6 [7] = assay: as above
HepG2 [8] = assay: as above
U2OS [9] = assay: as above
Calu-3 [10] = assay: cell viability relative to DMSO; higher = less toxic
Vero E6 [11] = assay: as above
HepG2 [12] = assay: as above
U2OS [13] = assay: as above
Caco-2 [14] = assay: as above
Caco-2 [15] = assay: relative viability EC50 (midpoint between 100% and the lowest measured viability); higher = less toxic

| SMILES | drug sensitivity score (Calu-3 [1]) | drug sensitivity score (Vero E6 [2]) | drug sensitivity score (HepG2 [3]) | drug sensitivity score (U2OS [4]) | drug sensitivity score (Caco-2 [5]) | relative viability EC50 (Calu-3 [6]) [µM] | relative viability EC50 (Vero E6 [7]) [µM] | relative viability EC50 (HepG2 [8]) [µM] | relative viability EC50 (U2OS [9]) [µM] | cell viability (Calu-3 [10]; 1 nM) [%] | cell viability (Calu-3 [10]; 10 nM) [%] | cell viability (Calu-3 [10]; 100 nM) [%] | cell viability (Calu-3 [10]; 1000 nM) [%] | cell viability (Calu-3 [10]; 10000 nM) [%] | cell viability (Vero E6 [11]; 1 nM) [%] | cell viability (Vero E6 [11]; 10 nM) [%] | cell viability (Vero E6 [11]; 100 nM) [%] | cell viability (Vero E6 [11]; 1000 nM) [%] | cell viability (Vero E6 [11]; 10000 nM) [%] | cell viability (HepG2 [12]; 1 nM) [%] | cell viability (HepG2 [12]; 10 nM) [%] | cell viability (HepG2 [12]; 100 nM) [%] | cell viability (HepG2 [12]; 1000 nM) [%] | cell viability (HepG2 [12]; 10000 nM) [%] | cell viability (U2OS [13]; 1 nM) [%] | cell viability (U2OS [13]; 10 nM) [%] | cell viability (U2OS [13]; 100 nM) [%] | cell viability (U2OS [13]; 1000 nM) [%] | cell viability (U2OS [13]; 10000 nM) [%] | cell viability (Caco-2 [14]; 1 nM) [%] | cell viability (Caco-2 [14]; 10 nM) [%] | cell viability (Caco-2 [14]; 100 nM) [%] | cell viability (Caco-2 [14]; 1000 nM) [%] | cell viability (Caco-2 [14]; 10000 nM) [%] | relative viability EC50 (Caco-2 [15]) [µM] |
| --- | --- | --- | --- | --- | --- | --- | --- | --- | --- | --- | --- | --- | --- | --- | --- | --- | --- | --- | --- | --- | --- | --- | --- | --- | --- | --- | --- | --- | --- | --- | --- | --- | --- | --- | --- |
| CCCc1c(-c2ccc(O)cc2)nn(-c2ccc(O)cc2)c1-c1ccc(O)cc1 [PPT] | 0 | 0 | 0 | 0 | 2.1 | > 10 | > 10 | > 10 | > 10 | 94.8 | 104 | 97.4 | 106 | 116 | 99.2 | 98.9 | 98.7 | 99.6 | 96 | 100 | 99.2 | 96 | 97 | 99.8 | 104 | 102 | 101 | 98.9 | 98.9 | 102 | 100 | 104 | 91 | 75 |  |
| O=C(Nc1ccc(C(O)(C(F)(F)F)C(F)(F)F)cc1)c1ccc(C(F)(F)F)cc1 [SR-1078] | 4.1 | 0 | 0 | 0 | 2.3 | 1.93 | > 10 | > 10 | > 10 | 109 | 105 | 118 | 91.7 | 48.6 | 100 | 100 | 99.6 | 97.6 | 95.6 | 114 | 99.9 | 101 | 99 | 112 | 105 | 107 | 102 | 102 | 93.2 | 104 | 99.6 | 95.4 | 99.7 | 56.4 |  |
| COc1ccc(C(=O)Nc2sc3c(c2C(N)=O)CCCC3)cc1OC [TCS-359] | 0 | 0 | 0 | 0 |  | > 10 | > 10 | > 10 | > 10 | 100 | 93.4 | 101 | 91.1 | 105 | 108 | 105 | 96 | 98.3 | 98.3 | 94.4 | 102 | 89.6 | 97.6 | 94.5 | 96.8 | 99 | 102 | 98.4 | 105 |  |  |  |  |  |  |
| OCC[N+]12CN3CN(CN(C3)C1)C2 [Y-11] | 0 | 0 | 0 |  | 0 | > 10 | > 10 | > 10 |  | 97.6 | 90.1 | 98 | 102 | 99.1 | 102 | 99.1 | 106 | 96.2 | 100 | 97.6 | 90.5 | 102 | 102 | 110 |  |  |  |  |  | 102 | 108 | 97.2 | 101 | 99.2 | > 10 |
| CC(C)(C)NC(=O)N[C@H](C(=O)N1C[C@H]2[C@@H]([C@H]1C(=O)NC(CC1CCC1)C(=O)C(N)=O)C2(C)C)C(C)(C)C (stereo partly drawn) [boceprevir] | 0 | 0 | 0 | 0 |  | > 10 | > 10 | > 10 | > 10 | 93.7 | 101 | 101 | 95.2 | 105 | 100 | 102 | 93.9 | 96.1 | 93.9 | 98.2 | 96.9 | 109 | 93.7 | 95.7 | 102 | 98.6 | 99.6 | 96.4 | 97.5 |  |  |  |  |  |  |
| COc1cc(Nc2c(C#N)cnc3cc(OCCCN4CCN(C)CC4)c(OC)cc23)c(Cl)cc1Cl [bosutinib] |  | 8.6 | 7.6 | 4.7 | 5.2 |  | 1.34 | 1.66 | 2.88 |  |  |  |  |  | 98.7 | 100 | 99.9 | 72.5 | 15.2 | 105 | 101 | 101 | 81.6 | 15.9 | 95.4 | 101 | 102 | 97.1 | 22.7 | 95.2 | 99.1 | 107 | 87.1 | 42.6 | 1.64 |
| CN(C)CCOC(c1ccc(Cl)cc1)c1ccccn1 (stereo not drawn) [carbinoxamine] | 0 | 0 | 0 |  | 0 | > 10 | > 10 | > 10 |  | 108 | 110 | 101 | 97.4 | 103 | 94.5 | 102 | 99.4 | 106 | 106 | 99.9 | 95.8 | 102 | 104 | 99.6 |  |  |  |  |  | 110 | 98.7 | 97.2 | 99.5 | 95.3 | > 10 |
| CCCC(=O)O[C@]1(C(=O)CCl)[C@@H](C)C[C@H]2[C@@H]3CCC4=CC(=O)C=C[C@]4(C)[C@@]3(F)C(=O)C[C@@]21C [clobetasone-butyrate] | 0 | 0 | 0.3 | 0 | 1.7 | > 10 | > 10 | > 10 | > 10 | 96.1 | 112 | 97.3 | 100 | 89 | 108 | 102 | 109 | 98.5 | 93 | 96.2 | 104 | 97.9 | 90.3 | 88.5 | 93.1 | 96.1 | 91.8 | 95 | 87.9 | 94.7 | 103 | 94.1 | 94.3 | 74.6 |  |
| O=C(O)C(Cl)Cl [dichloroacetate] |  | 0 | 0 | 0 | 0 |  | > 10 | > 10 | > 10 |  |  |  |  |  | 104 | 96.3 | 96.1 | 104 | 96 | 111 | 104 | 110 | 93.2 | 102 | 104 | 96.2 | 97.4 | 96 | 99.6 | 102 | 106 | 116 | 97.3 | 98.6 | > 10 |
| COc1cc2c(cc1Cc1cccc(Cl)c1F)c(=O)c(C(=O)O)cn2[C@H](CO)C(C)C [elvitegravir] | 0.2 | 0 | 0 | 0.5 | 1.4 | > 10 | > 10 | > 10 | > 10 | 99.2 | 97.4 | 102 | 96.7 | 88.1 | 101 | 97.9 | 98 | 93.6 | 99.5 | 117 | 106 | 109 | 104 | 91 | 93.6 | 95.7 | 92.8 | 96.3 | 80.3 | 95.3 | 91.8 | 87.6 | 99.8 | 69.3 |  |
| Cc1nc(-c2ccc(OCC(C)C)c(C#N)c2)sc1C(=O)O [febuxostat] |  | 0 | 0 | 0 | 0 |  | > 10 | > 10 | > 10 |  |  |  |  |  | 94.3 | 98.5 | 100 | 101 | 96.4 | 112 | 96.8 | 107 | 96.8 | 94.1 | 92.8 | 99.9 | 97.2 | 102 | 106 | 93.5 | 94 | 104 | 98.6 | 96.1 | > 10 |
| CCOCc1cc(OC)c(-c2ccc(C[C@H](NC(=O)c3c(F)cccc3F)C(=O)O)cc2)c(OC)c1 [firategrast] | 0 | 0 | 0 |  | 0 | > 10 | > 10 | > 10 |  | 103 | 94.1 | 86.4 | 99.7 | 98.5 | 96.3 | 101 | 98.5 | 101 | 98 | 104 | 105 | 90.3 | 99.3 | 96.6 |  |  |  |  |  | 99.3 | 94.6 | 104 | 93.9 | 101 | > 10 |
| O=C(O)C1=CCNCC1 [isoguvacine] | 0 | 0 | 0 |  | 0 | > 10 | > 10 | > 10 |  | 105 | 99.1 | 104 | 94.5 | 94.4 | 101 | 103 | 100 | 99.4 | 98.2 | 91 | 98.5 | 91.9 | 96.1 | 95 |  |  |  |  |  | 106 | 99.5 | 108 | 106 | 98.7 | > 10 |
| CCCCCCCCCCCC(=O)N(CCO)CCO [lauric-diethanolamide] |  | 0 | 0 | 0 | 0 |  | > 10 | > 10 | > 10 |  |  |  |  |  | 104 | 101 | 103 | 102 | 97.3 | 94 | 99.1 | 93.5 | 96.8 | 90.1 | 99.4 | 95.9 | 101 | 98.5 | 102 | 107 | 90.1 | 98.7 | 92.7 | 101 | > 10 |
| CC(=O)c1cc2c(o1)C(=O)c1ccccc1C2=O [napabucasin] | 1.8 | 7.4 | 18.4 | 5.8 | 10.7 |  | 2.24 | 0.291 | 3.07 | 124 | 109 | 101 | 106 | 56.4 | 88.7 | 99.5 | 89.6 | 88.8 | -0.4 | 102 | 109 | 97.1 | -0.9 | -0.3 | 102 | 98.5 | 102 | 98.9 | -0.4 | 103 | 98.5 | 95.3 | 55.8 | 0.5 | 1.13 |
| CC(=O)O[C@H]1C[C@@H]2CC[C@@H]3[C@H](CC[C@@]4(C)[C@H]3C[C@H]([N+]3(C)CCCCC3)[C@@H]4OC(C)=O)[C@@]2(C)C[C@@H]1[N+]1(C)CCCCC1 [pancuronium] | 0 | 0 | 0 |  | 0 | > 10 | > 10 | > 10 |  | 114 | 101 | 103 | 104 | 99.5 | 102 | 102 | 106 | 101 | 97.9 | 98.2 | 103 | 101 | 106 | 102 |  |  |  |  |  | 106 | 99.9 | 97.8 | 97.5 | 94.1 | > 10 |
